Measurements published in patent publication US11866720B2, “Transgenic or non-transgenic plants with mutated protoporphyrinogen oxidase having increased tolerance to herbicides” (priority 2013, dated 2024).
Positions count from the first letter of the chain named.

Key:
Experiment in all cases: biochemical
[1] = target: T1, recombinant wildtype and mutated PPO (Amaranthus PPO2: PPX2L_WC SEQ ID NO 2, PPX2L_AC SEQ ID NO 4, dG210 SEQ ID NO 6 & 8) (Amaranthus tuberculatus, UniProt Q0NZW9, D133A/F420M/R128I); settings: IC50 (M)
T1 sequence (Q0NZW9 1-534 R128I/D133A/F420M): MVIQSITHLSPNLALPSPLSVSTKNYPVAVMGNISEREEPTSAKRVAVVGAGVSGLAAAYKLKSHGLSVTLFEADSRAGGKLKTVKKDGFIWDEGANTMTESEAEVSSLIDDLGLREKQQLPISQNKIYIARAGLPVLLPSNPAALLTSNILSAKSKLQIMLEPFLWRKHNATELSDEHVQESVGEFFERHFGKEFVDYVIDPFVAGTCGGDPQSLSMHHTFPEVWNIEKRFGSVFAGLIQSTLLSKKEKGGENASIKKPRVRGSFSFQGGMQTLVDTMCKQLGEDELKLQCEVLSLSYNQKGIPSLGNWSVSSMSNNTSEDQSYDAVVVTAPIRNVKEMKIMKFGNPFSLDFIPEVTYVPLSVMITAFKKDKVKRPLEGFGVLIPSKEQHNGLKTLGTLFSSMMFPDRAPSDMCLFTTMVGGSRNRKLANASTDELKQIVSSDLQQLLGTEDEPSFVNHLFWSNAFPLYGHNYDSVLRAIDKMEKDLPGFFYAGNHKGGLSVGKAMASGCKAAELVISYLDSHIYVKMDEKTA

[2] = target: T2, recombinant wildtype and mutated PPO (Amaranthus PPO2: PPX2L_WC SEQ ID NO 2, PPX2L_AC SEQ ID NO 4, dG210 SEQ ID NO 6 & 8) (Amaranthus tuberculatus, UniProt Q0NZW9, D133A/F420I/R128I); settings: IC50 (M)
T2 sequence (Q0NZW9 1-534 R128I/D133A/F420I): T1 sequence (Q0NZW9 1-534 R128I/D133A/F420M) with M420I

[3] = target: T3, recombinant wildtype and mutated PPO (Amaranthus PPO2: PPX2L_WC SEQ ID NO 2, PPX2L_AC SEQ ID NO 4, dG210 SEQ ID NO 6 & 8) (Amaranthus tuberculatus, UniProt Q0NZW9, D133A/F420M/R128Q); settings: IC50 (M)
T3 sequence (Q0NZW9 1-534 R128Q/D133A/F420M): T1 sequence (Q0NZW9 1-534 R128I/D133A/F420M) with I128Q

[4] = target: recombinant wildtype and mutated PPO (Amaranthus PPO2: PPX2L_WC SEQ ID NO 2, PPX2L_AC SEQ ID NO 4, dG210 SEQ ID NO 6 & 8) (Amaranthus tuberculatus, UniProt Q0NZW9, D133A/F420M/R128S); settings: IC50 (M)
recombinant wildtype and mutated PPO (Amaranthus PPO2: PPX2L_WC SEQ ID NO 2, PPX2L_AC SEQ ID NO 4, dG210 SEQ ID NO 6 & 8) (Amaranthus tuberculatus, UniProt Q0NZW9, D133A/F420M/R128S), sequence (Q0NZW9 1-534 R128S/D133A/F420M): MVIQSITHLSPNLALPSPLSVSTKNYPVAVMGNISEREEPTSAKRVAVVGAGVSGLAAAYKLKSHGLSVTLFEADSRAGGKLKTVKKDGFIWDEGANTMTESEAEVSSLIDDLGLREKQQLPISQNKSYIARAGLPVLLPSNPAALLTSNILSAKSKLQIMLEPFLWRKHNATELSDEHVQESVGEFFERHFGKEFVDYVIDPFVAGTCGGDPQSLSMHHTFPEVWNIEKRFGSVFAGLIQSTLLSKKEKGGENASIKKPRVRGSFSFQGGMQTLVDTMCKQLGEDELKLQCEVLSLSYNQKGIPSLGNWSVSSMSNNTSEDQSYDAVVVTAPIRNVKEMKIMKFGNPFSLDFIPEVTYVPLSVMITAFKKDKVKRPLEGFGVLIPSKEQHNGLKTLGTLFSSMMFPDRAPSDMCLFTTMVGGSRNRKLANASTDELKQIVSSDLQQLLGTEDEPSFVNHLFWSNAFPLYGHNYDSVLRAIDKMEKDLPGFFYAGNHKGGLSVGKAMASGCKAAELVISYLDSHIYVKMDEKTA

[5] = target: recombinant wildtype and mutated PPO (Amaranthus PPO2: PPX2L_WC SEQ ID NO 2, PPX2L_AC SEQ ID NO 4, dG210 SEQ ID NO 6 & 8) (Amaranthus tuberculatus, UniProt Q0NZW9, D133A/F420V/R128H); settings: IC50 (M)
recombinant wildtype and mutated PPO (Amaranthus PPO2: PPX2L_WC SEQ ID NO 2, PPX2L_AC SEQ ID NO 4, dG210 SEQ ID NO 6 & 8) (Amaranthus tuberculatus, UniProt Q0NZW9, D133A/F420V/R128H), sequence (Q0NZW9 1-534 R128H/D133A/F420V): as the sequence (Q0NZW9 1-534 R128S/D133A/F420M) above, with S128H, M420V counted along it

[6] = target: T4, recombinant wildtype and mutated PPO (Amaranthus PPO2: PPX2L_WC SEQ ID NO 2, PPX2L_AC SEQ ID NO 4, dG210 SEQ ID NO 6 & 8) (Amaranthus tuberculatus, UniProt Q0NZW9, R128A/F420L, form not given)
T4 sequence (Q0NZW9 1-534 R128A/F420L): T1 sequence (Q0NZW9 1-534 R128I/D133A/F420M) with I128A, A133D, M420L

| Structure (SMILES) | IC50 [1] [M] | IC50 [2] [M] | IC50 [3] [M] | IC50 [4] [M] | IC50 [5] [M] | IC50 [6] [nM] |
| --- | --- | --- | --- | --- | --- | --- |
| C#CCN1C(=O)C(F)(F)Oc2cc(F)c(-n3c(=O)n(C)c(=S)n(C)c3=O)cc21 | 6.1e-08 | 1.38e-07 | 1.07e-08 | 2.4e-08 | 7.63e-08 |  |
| C#CCN1C(=O)C(F)(F)Oc2cc(F)c(-n3c(=O)cc(C(F)(F)F)n(C)c3=O)cc21 |  |  |  |  |  | 16.2 |
| C#CCN1C(=O)C(F)(F)Oc2cc(F)c(N3C(=O)C4=C(CCCC4)C3=O)cc21 |  |  |  |  |  | 11400 |
| COC(Oc1ccccc1Oc1cc(-n2c(=O)cc(C(F)(F)F)n(C)c2=O)c(F)cc1Cl)C(=O)OC1CCCCC1 (stereo not shown) | 1.06e-08 | 1.82e-06 | 1.72e-07 | 5.24e-08 | 9.06e-08 | 93.7 |
| COC(=O)C(OC)Oc1ccccc1Oc1cc(-n2c(=O)cc(C(F)(F)F)n(C)c2=O)c(F)cc1Cl (stereo not shown) | 1.15e-08 | 2.27e-08 | 7.14e-08 | 3.62e-08 | 6.93e-09 | 47 |
